Data reported in ChEMBL document CHEMBL3507680, “University of Dundee, Gates Library screen for HepG2 cell viability”.

Experiment: Human HepG2 cell viability assay in 384 well format
Assay type: toxicity, cell-based
Parameters: dose 125 nL, time 70.5 hour; concentration not given beside the values
Conditions: HepG2 cells, read-out: Inhibition

**Q.** Which cytotoxicity at 70.5 h does the source give for `N#Cc1cccc(C(=O)N2CCCC(C(=O)CCc3ccccc3)C2)c1` (stereo unspecified) here?
**A.** -5.64%

**Q.** Which cytotoxicity at 70.5 h does the source give for `COc1ccc2cc(CN(C)CCN3CCCCC3=O)c(=O)[nH]c2c1` here?
**A.** -12.2%

**Q.** For `Cc1ccc(C)c(C(O)Cn2cc(Cl)c(=O)[nH]c2=O)c1` (stereo unspecified), which cytotoxicity at 70.5 h is on record?
**A.** 13.1%

**Q.** For `CN(C)Cc1ccnc(NS(=O)(=O)CCc2ccccc2)c1`, which cytotoxicity at 70.5 h is on record?
**A.** 3.89%

**Q.** Which cytotoxicity at 70.5 h does the source give for `Cc1ccc(C(=O)NS(=O)(=O)c2c(Cl)cccc2Cl)c(=O)[nH]1` here?
**A.** -5.05%

**Q.** Which cytotoxicity at 70.5 h does the source give for `CCc1nc(CC(=O)N2CCC(C(=O)N3CCCC3)CC2)cs1` here?
**A.** -9.83%

**Q.** Which cytotoxicity at 70.5 h does the source give for `Cc1nnc2n1CCN(Cc1nc(-c3ccoc3)no1)C2` here?
**A.** 13.6%

**Q.** With `Cc1cccc(CNC2(CCO)CCOCC2)c1C` as the compound, how does the cytotoxicity at 70.5 h read?
**A.** -2.52%

**Q.** With `CC(C)c1nc(CNC(=O)c2ccc(C(C)N3CCCCC3)o2)cs1` (stereo unspecified) as the compound, how does the cytotoxicity at 70.5 h read?
**A.** 11.9%

**Q.** Which cytotoxicity at 70.5 h does the source give for `O=C(Cc1ccccn1)N1CCCC(c2nccn2CC2CCC2)C1` (stereo unspecified) here?
**A.** -24.3%

**Q.** Which cytotoxicity at 70.5 h does the source give for `COc1nc2c(cc1C(=O)NCCc1nc3ccccc3s1)CCC2` here?
**A.** -6.58%

**Q.** With `CN(C)Cc1cc(CC2(NCc3ccc(C#N)cc3)COC2)no1` as the compound, how does the cytotoxicity at 70.5 h read?
**A.** -6.01%

**Q.** With `CCOCCS(=O)(=O)Cc1ccn(-c2cccc(F)c2)n1` as the compound, how does the cytotoxicity at 70.5 h read?
**A.** -10.1%

**Q.** Which cytotoxicity at 70.5 h does the source give for `O=S(=O)(Cc1ccc(F)cc1)NCCc1nnc2n1CCC2` here?
**A.** -18.4%

**Q.** Which cytotoxicity at 70.5 h does the source give for `NC(=O)C1CCN(C(=O)NCCOc2ccc3c(c2)OCO3)C1` (stereo unspecified) here?
**A.** -8.31%

**Q.** With `O=C1CN([C@@H]2CC[C@@H](NS(=O)(=O)c3ccc(F)cc3)[C@H]2O)CCN1` as the compound, how does the cytotoxicity at 70.5 h read?
**A.** 4.31%

**Q.** Which cytotoxicity at 70.5 h does the source give for `N#Cc1cccn(CCOc2ccc(Cl)cc2)c1=O` here?
**A.** -1.43%

**Q.** For `Cn1nnc(NCc2ccccc2OCc2ccc(Cl)cc2)n1`, which cytotoxicity at 70.5 h is on record?
**A.** 29.2%

**Q.** For `O=c1c2cnc(N3CCCC3)nc2ccn1-c1cccc(C(F)(F)F)c1`, which cytotoxicity at 70.5 h is on record?
**A.** -5.84%

**Q.** For `O=C(NCC(Cc1cccc(F)c1)N1CCCC1=O)c1ccc(=O)[nH]n1` (stereo unspecified), which cytotoxicity at 70.5 h is on record?
**A.** 1.13%

**Q.** For `COCCO[C@H]1CCN(C(=O)c2cnoc2C)[C@H]1Cc1cnn(C)c1`, which cytotoxicity at 70.5 h is on record?
**A.** -5.22%

**Q.** With `O=C(C1CN(CC2CC2)CC12CCOCC2)N1CCCC1` (stereo unspecified) as the compound, how does the cytotoxicity at 70.5 h read?
**A.** 16.3%

**Q.** With `N#Cc1ccccc1CN1CCC(c2nccn2CC2CCC2)CC1` as the compound, how does the cytotoxicity at 70.5 h read?
**A.** -1.95%

**Q.** Which cytotoxicity at 70.5 h does the source give for `CC(C)(CO)N1CCN(S(=O)(=O)CCCF)CC1` here?
**A.** -8.05%

**Q.** For `Cc1nnc(NC(=O)CN2CCc3c(nc(C4CC4)n3C)C2)s1`, which cytotoxicity at 70.5 h is on record?
**A.** 6.62%

**Q.** With `CNC(=O)[C@H]1C[C@@H]2CN(Cc3cccnc3OC)C[C@@H]2N1C(C)C` as the compound, how does the cytotoxicity at 70.5 h read?
**A.** -7.89%

**Q.** With `c1cc(CN2CCCC2)ccc1CNc1cncc2nnnn12` as the compound, how does the cytotoxicity at 70.5 h read?
**A.** -4.34%

**Q.** For `CC(C)N(C)C(=O)C1CCC(=O)N(CCc2cccc(F)c2)C1` (stereo unspecified), which cytotoxicity at 70.5 h is on record?
**A.** -3.96%

**Q.** For `Cc1ccc(-n2nnc(CC(=O)N3CCN(C4CC4)CC3)c2C)cc1`, which cytotoxicity at 70.5 h is on record?
**A.** -8.64%

**Q.** Which cytotoxicity at 70.5 h does the source give for `Cc1nc(C)n(CC2CN(CCc3cccs3)CCO2)n1` (stereo unspecified) here?
**A.** -5.27%

**Q.** With `Cc1nc(NC(=O)N2CCCC(N(C)C)C2)nn1C` (stereo unspecified) as the compound, how does the cytotoxicity at 70.5 h read?
**A.** 31.8%

**Q.** With `CCc1cc(NC2CCS(=O)(=O)CC2)nc(N2CCCCC2)n1` as the compound, how does the cytotoxicity at 70.5 h read?
**A.** 22.5%

**Q.** With `Cc1occc1C(=O)N1C[C@@H]2CN(S(C)(=O)=O)CCO[C@@H]2C1` as the compound, how does the cytotoxicity at 70.5 h read?
**A.** 46.9%

**Q.** For `COc1ccc(Cl)cc1CN1CC(n2cccn2)C1`, which cytotoxicity at 70.5 h is on record?
**A.** -4.9%

**Q.** Which cytotoxicity at 70.5 h does the source give for `Cc1cccc(CN2C[C@H]3CCC[C@@]3(COCc3csc(C)n3)C2)n1` here?
**A.** -6.32%

**Q.** With `CC(Cc1c(F)cccc1F)NC(=O)Nc1cnn(CC(N)=O)c1` (stereo unspecified) as the compound, how does the cytotoxicity at 70.5 h read?
**A.** -3.56%

**Q.** With `CSc1ccc(-n2nnc(C(=O)O)c2-c2ccccn2)cc1` as the compound, how does the cytotoxicity at 70.5 h read?
**A.** 11.2%

**Q.** Which cytotoxicity at 70.5 h does the source give for `N#Cc1ccc(CC(=O)N2CCC(Nc3cccnn3)CC2)cc1` here?
**A.** -5.35%

**Q.** Which cytotoxicity at 70.5 h does the source give for `Cc1cnn(CC2CCCN2C(=O)c2ccc(OC(C)C)nc2)c1` (stereo unspecified) here?
**A.** -15%

**Q.** For `CN1CCN(CC(NCc2ccc(F)c(F)c2)c2ccccc2)CC1` (stereo unspecified), which cytotoxicity at 70.5 h is on record?
**A.** 5.13%

**Q.** For `COCCn1cc(NC(=O)NCC(c2cccc(F)c2)N(C)C)cn1` (stereo unspecified), which cytotoxicity at 70.5 h is on record?
**A.** -2.22%

**Q.** For `c1cc(-c2nnc([C@H]3CCN(C4CCCCC4)C3)o2)ccn1`, which cytotoxicity at 70.5 h is on record?
**A.** -0.595%

**Q.** With `O=C(Nc1cnn(CCN2CCOCC2)c1)c1ccccc1O` as the compound, how does the cytotoxicity at 70.5 h read?
**A.** 0.705%

**Q.** With `Cc1ccc(C(=O)O)cc1NC(=O)C1CC=CC1` as the compound, how does the cytotoxicity at 70.5 h read?
**A.** 22.9%

**Q.** With `O=C(NCCc1cc2nc(-c3ccncc3)ccn2n1)C1CCOCC1` as the compound, how does the cytotoxicity at 70.5 h read?
**A.** -5.82%

**Q.** Which cytotoxicity at 70.5 h does the source give for `CNC(=O)[C@@H](c1ccccc1OC)N1CCC[C@H]1C(=O)N1CCC1` here?
**A.** -5.76%

**Q.** Which cytotoxicity at 70.5 h does the source give for `COc1ccc2[nH]cc(C(=O)N3C[C@@H](O)[C@H](N4CCOCC4)C3)c2c1` here?
**A.** -9.96%

**Q.** With `COc1cc2c(cc1OC)S(=O)(=O)N(Cc1cccc(C)c1)C2=O` as the compound, how does the cytotoxicity at 70.5 h read?
**A.** -11.2%

**Q.** With `CCc1nc(CN(C)C2CCCN(c3cccnn3)C2)no1` (stereo unspecified) as the compound, how does the cytotoxicity at 70.5 h read?
**A.** 16.7%

**Q.** With `c1csc(CN2CCc3c(CNc4nncs4)cncc3C2)c1` as the compound, how does the cytotoxicity at 70.5 h read?
**A.** -9.12%

**Q.** For `COCCCN1CCN(CCOC)C(C)C1` (stereo unspecified), which cytotoxicity at 70.5 h is on record?
**A.** 0.867%

**Q.** For `COc1nc2c(cc1C(=O)NC(C)Cc1cnccn1)CCC2` (stereo unspecified), which cytotoxicity at 70.5 h is on record?
**A.** -7.71%

**Q.** With `Cc1ccc2c(c1)C1(CCNCC1)CC2N1CCOCC1` (stereo unspecified) as the compound, how does the cytotoxicity at 70.5 h read?
**A.** 1.67%

**Q.** With `CCN(CC1CN(Cc2nc(C3CC3)no2)CCO1)c1cccnn1` (stereo unspecified) as the compound, how does the cytotoxicity at 70.5 h read?
**A.** -16.6%

**Q.** With `COCCN1CC[C@@H]2OC[C@H](C(=O)NCc3cccs3)C[C@@H]2C1` as the compound, how does the cytotoxicity at 70.5 h read?
**A.** 10.1%

**Q.** For `Cn1cc(C2CCCN2Cc2csc(-c3ccccc3)n2)cn1` (stereo unspecified), which cytotoxicity at 70.5 h is on record?
**A.** -7.14%

**Q.** With `CCOC(=O)[C@@H]1[C@@H](c2ccccc2)CN2CCN(C(=O)N(C)C)C[C@H]12` as the compound, how does the cytotoxicity at 70.5 h read?
**A.** -5.43%

**Q.** For `CC(=O)N(CCC(=O)NC1(C#N)CCC1)Cc1ccccc1`, which cytotoxicity at 70.5 h is on record?
**A.** 21.1%

**Q.** Which cytotoxicity at 70.5 h does the source give for `CC(C)Nc1nc2c(cc1C(=O)O)CCN(Cc1ccsc1)CC2` here?
**A.** -6.73%

**Q.** Which cytotoxicity at 70.5 h does the source give for `CCc1n[nH]c(C(=O)NCCn2nccc2C)c1C` here?
**A.** -5.81%

**Q.** For `CN(C)CCNC(=O)CC1CCN(c2cccnn2)CC1`, which cytotoxicity at 70.5 h is on record?
**A.** -2.25%

**Q.** For `CCOC(=O)c1cnn(C2CCN(C(=O)CCC(C)C)CC2)c1N`, which cytotoxicity at 70.5 h is on record?
**A.** 0.0774%

**Q.** For `CC(C)CN1CCCC12CCN(c1nncs1)C2` (stereo unspecified), which cytotoxicity at 70.5 h is on record?
**A.** -4.38%

**Q.** For `Cc1noc(C2CCCN(C(=O)c3ccc(Br)cc3F)C2)n1` (stereo unspecified), which cytotoxicity at 70.5 h is on record?
**A.** -7.35%

**Q.** With `Cc1cc(CNS(C)(=O)=O)ccc1N(C)C` as the compound, how does the cytotoxicity at 70.5 h read?
**A.** -7.39%

**Q.** Which cytotoxicity at 70.5 h does the source give for `CCN(CC)C(=O)c1nnsc1-c1ccc(Cl)cc1` here?
**A.** -17.2%

**Q.** With `CC(=O)N(C)CC(=O)NC1(c2ccc(Br)cc2)CC1` as the compound, how does the cytotoxicity at 70.5 h read?
**A.** 4.73%

**Q.** For `COCCN(C)C(=O)c1nc2c(s1)CCCN2C`, which cytotoxicity at 70.5 h is on record?
**A.** 11.8%

**Q.** With `O=C(c1cnccn1)N1CCC(CN2CCOCC2)CC1` as the compound, how does the cytotoxicity at 70.5 h read?
**A.** -7.46%

**Q.** For `O=C(NC1CCCC1)C1Cc2nc(-c3ccsc3)sc2N1CC1CC1` (stereo unspecified), which cytotoxicity at 70.5 h is on record?
**A.** 9.52%

**Q.** Which cytotoxicity at 70.5 h does the source give for `Cc1ccc(CNC2(Cc3cc(C(C)(C)O)on3)COC2)o1` here?
**A.** -5.2%

**Q.** Which cytotoxicity at 70.5 h does the source give for `O=C(c1ccc[nH]1)N1CCOC2(COCCN(c3cncnc3)C2)C1` (stereo unspecified) here?
**A.** -7.73%

**Q.** Which cytotoxicity at 70.5 h does the source give for `COCCN(Cc1ccccn1)C(=O)CC1OCCc2ccccc21` (stereo unspecified) here?
**A.** -6.98%

**Q.** With `COc1cc(N2CCC3(CCN(Cc4nccs4)CC3)C2)ncn1` as the compound, how does the cytotoxicity at 70.5 h read?
**A.** 30.8%

**Q.** With `COC(=O)c1ccc(N2CCN(CC(=O)NC(N)=O)C(C)C2)cc1` (stereo unspecified) as the compound, how does the cytotoxicity at 70.5 h read?
**A.** -3.82%

**Q.** For `CCc1nc(C2CCCN2Cc2nc(CCOC)no2)no1` (stereo unspecified), which cytotoxicity at 70.5 h is on record?
**A.** -9.31%

**Q.** For `COCC1(C(=O)N[C@H]2CN(c3ccnc(C)c3)C[C@@H]2C2CC2)CCC1`, which cytotoxicity at 70.5 h is on record?
**A.** -8.46%

**Q.** Which cytotoxicity at 70.5 h does the source give for `CC(C)[C@H]1CN(c2ccncc2)C[C@@H]1NS(=O)(=O)N(C)C` here?
**A.** -4.27%

**Q.** With `O=C(NCCc1ccncc1)c1cccc(S(=O)(=O)N[C@@H]2CCNC2)c1` as the compound, how does the cytotoxicity at 70.5 h read?
**A.** 19%

**Q.** With `O=C(NC[C@H]1OC[C@@H](NCc2ccccc2F)[C@@H]1O)Nc1ccccc1` as the compound, how does the cytotoxicity at 70.5 h read?
**A.** -3.35%

**Q.** For `CN1CC(=O)N(c2ccsc2)CC12CCN(S(=O)(=O)C1CC1)C2` (stereo unspecified), which cytotoxicity at 70.5 h is on record?
**A.** -96.5%
